From patent US20100076015A1, “Aminopyridine Derivatives” (VANTIA LIMITED, priority 2008, published 2010)

Biological target: T1, Human KLK1 (Homo sapiens, UniProt P06870)
T1 construct: purchased Callbiochem (Calbiochem)
Test: Determination of the IC50 for KLK1 (fluorogenic substrate H-DVal-Leu-Arg-AFC)
Assay type: biochemical
Details: 37° C.
Outline: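 hKLK1 + H-DVal-Leu-Arg-AFC, 37° C, varied cpd conc. Initial rate by A410 change → residual activity → IC50.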

T1 sequence (P06870 25-262): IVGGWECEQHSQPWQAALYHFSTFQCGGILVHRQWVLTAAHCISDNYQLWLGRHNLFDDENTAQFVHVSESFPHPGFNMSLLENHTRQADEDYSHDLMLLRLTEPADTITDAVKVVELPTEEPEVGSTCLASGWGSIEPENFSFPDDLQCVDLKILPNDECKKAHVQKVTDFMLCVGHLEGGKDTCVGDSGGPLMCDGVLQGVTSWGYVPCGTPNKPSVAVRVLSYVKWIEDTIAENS

SMILES	IC50 [nM]
CCC(C)[C@@H](NC)C(=O)N[C@@H](Cc1csc2ccccc12)C(=O)NCc1ccc(N)nc1 (stereo partly drawn) [Example 51, (R)-3-Methyl-2-methylamino-pentanoic acid {(S)-1-[(6-amino-pyridin-3-ylmethyl)-carbamoyl]-2-benzo[b]thiophen-3-yl-ethyl}-amide]	0.26
Cc1[nH]c(C(=O)N[C@@H](Cc2cccc(C(F)(F)F)c2)C(=O)NCc2ccc(N)nc2)c(C)c1C [Example 230, 3,4,5-Trimethyl-1H-pyrrole-2-carboxylic acid [(S)-1-[(6-amino-pyridin-3-ylmethyl)-carbamoyl]-2-(3-trifluoromethyl-phenyl)-ethyl]-amide]	20.3
CCC(C)[C@@H](NC)C(=O)N[C@@H](Cc1cc(F)cc(F)c1)C(=O)NCc1ccc(N)nc1 (stereo partly drawn) [Example 49, (R)-3-Methyl-2-methylamino-pentanoic acid [(S)-1-[(6-amino-pyridin-3-ylmethyl)-carbamoyl]-2-(3,5-difluoro-phenyl)-ethyl]-amide]	4.2
Cc1nc(N)ccc1CNC(=O)[C@@H](Cc1ccc(Cl)c(Cl)c1)NC(=O)[C@H]1CCCN1C [Example 190, (R)-1-Methyl-pyrrolidine-2-carboxylic acid [(R)-1-[(6-amino-2-methyl-pyridin-3-ylmethyl)-carbamoyl]-2-(3,4-dichloro-phenyl)-ethyl]-amide]	1.8
CCC(C)[C@H](NC)C(=O)N[C@@H](CC1CCCCC1)C(=O)NCc1ccc(N)nc1 (stereo partly drawn) [Example 339, (S)-3-Methyl-2-methylamino-pentanoic acid {(S)-1-[(6-amino-pyridin-3-ylmethyl)-carbamoyl]-2-cyclohexyl-ethyl}-amide]	39.8

Now from value to molecule:

IC50 [nM]	SMILES
21	Nc1ccc(CNC(=O)[C@H](Cc2ccc(F)c(F)c2)NC(=O)[C@H]2CCCN2Cc2cccc(Cl)c2)cn1 [Example 143, (R)-1-(3-Chloro-benzyl)-pyrrolidine-2-carboxylic acid [(S)-1-[(6-amino-pyridin-3-ylmethyl)-carbamoyl]-2-(3,4-difluoro-phenyl)-ethyl]-amide]
1.3	Nc1ccc(CNC(=O)[C@H](Cc2ccc(F)c(F)c2)NC(=O)CN2CCOCC2)cn1 [Example 171, (S)—N-(6-Amino-pyridin-3-ylmethyl)-3-(3,4-difluoro-phenyl)-2-(2-morpholin-4-yl-acetylamino)-propionamide]
8.6	CCN1CCC[C@@H]1C(=O)N[C@@H](Cc1ccc(F)cc1)C(=O)NCc1ccc(N)nc1 [Example 136, (R)-1-Ethyl-pyrrolidine-2-carboxylic acid [(S)-1-[(6-amino-pyridin-3-ylmethyl)-carbamoyl]-2-(4-fluoro-phenyl)-ethyl]-amide]
5.3	CCC(C)[C@@H](N)C(=O)N[C@@H](Cc1ccc(F)cc1)C(=O)NCc1ccc(N)nc1 (stereo partly drawn) [Example 33, (R)-2-Amino-3-methyl-pentanoic acid [(S)-1-[(6-amino-pyridin-3-ylmethyl)-carbamoyl]-2-(4-fluoro-phenyl)-ethyl]-amide]
21.3	Nc1ccc(CNC(=O)[C@H](Cc2ccc(F)c(F)c2)NC(=O)c2cc3ccccc3[nH]2)cn1 [Example 325, 1H-Indole-2-carboxylic acid [(S)-1-[(6-amino-pyridin-3-ylmethyl)-carbamoyl]-2-(3,4-difluoro-phenyl)-ethyl]-amide]
165	Cc1cc(C(=O)N[C@@H](Cc2ccc(F)cc2)C(=O)NCc2ccc(N)nc2)n(C)n1 [Example 291, 2,5-Dimethyl-2H-pyrazole-3-carboxylic acid [(S)-1-[(6-amino-pyridin-3-ylmethyl)-carbamoyl]-2-(4-fluoro-phenyl)-ethyl]-amide]
21.7	CN1CCC[C@@H]1C(=O)N[C@@H](Cc1ccccc1Cl)C(=O)NCc1ccc(N)nc1 [Example 109, (R)-1-Methyl-pyrrolidine-2-carboxylic acid [(S)-1-[(6-amino-pyridin-3-ylmethyl)-carbamoyl]-2-(2-chloro-phenyl)-ethyl]-amide]
